6 molecules from patent publication US20020137929A1, “1 - (3-heterocyclylphenyl) isothiourea, -isourea, -guanidine and -amidine herbicidal agents” (Intellectual Property Department, BASF Aktiengesellschaft, priority 1998, published 2002) can be followed below.

One test has as its system ECHCG (Barnyardgrass). Kind of test: Postemergence herbicidal evaluation. The format is in vivo, Echinochloa crus-galli. Conditions: for ECHCG herbicidal rating / Herbicidal rating ECHCG: postemergence. In outline:
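Two-week seedlings sprayed postemergence at 40 psi; formulation: 1:1 acetone/water, 0.5% TWEEN 20; application ≈0.0156–0.500 kg/ha. Greenhouse grow-out, then 0–9 visual scoring at 4–5 weeks.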

For test [1], the system named is CHEAL (Lambsquarters, Common). Description: Preemergence herbicidal evaluation. The format is in vivo, Chenopodium album. Conditions: rated 4-5 weeks after treatment. In outline:
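Scores (0–9) reflect visual comparison with control plants for stand, vigor, malformation, size and chlorosis. Compound was applied to the soil after sowing, before emergence, as an aqueous acetone spray (about 0.0156–0.500 kg/ha), and cups were kept in a greenhouse for 4–5 weeks.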

In another test the test system is ORYSAT (Rice, Tebonnet). Description: Preemergence herbicidal evaluation. The note with it: rated 4-5 weeks after treatment. It counts as in vivo, Oryza sativa, (L.) Tebonnet. The text has this: Results of herbicide evaluation are expressed on a rating scale (0-9). The scale is based upon a visual observation of plant stand, vigor, malformation, size, chlorosis and overall plant appearance as compared with a control.
The preemergence herbicidal activity of the test compounds of the present invention is exemplified by the following tests in which the seeds of a variety of monocotyledonous and dicotyledonous plants are separately mixed with potting soil and planted on top of approximately one inch of soil in separate pint cups. After planting, the cups are sprayed with the selected aqueous acetone solution containing test compound in sufficient quantity to provide the equivalent of about 0.0156 to 0.500 kg per hectare of test compound per cup. The treated cups are then placed on greenhouse benches, watered and cared for in accordance with conventional greenhouse procedures. From four to five weeks after treatment, the tests are terminated and each cup is examined and rated according to the rating system provided in Example 37.
The compounds evaluated are reported by compound number given in Example 37.

Test [2] has as its system ECHORC (Watergrass (Calif.)). Description: Preemergence weed control under flooded paddy conditions. The note with it: rated 3-4 weeks after treatment. It counts as in vivo, Echinochloa oryzoides. In outline:
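Silt loam, seeds in top 0.5 cm; flood held 1.5-3 cm; test cpd as acetone/water 50/50 into flood water, ~0.0313-0.500 kg/ha a.i.; greenhouse 3-4 wk; visual 0-9 score vs control.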

The test system of the next test is CYPSE (Flatsedge). The test is described as above. It counts as in vivo, Cyperus serotinus. The note with it: rated 3-4 weeks after treatment. In outline:
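Flooded-pot preemergence screen with silt loam and seeds in the upper 0.5 cm. Dose about 0.0313 to 0.500 kg/ha, delivered into flood water; visual 0-9 score after 3 to 4 weeks.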

Where [3] appears, read: rate 0.0156 kg/ha, rating scale 0-9.
The mark [4] stands for this setting: rate 0.0313 kg/ha, rating scale 0-9.
The mark [5] stands for this setting: rate 0.0625 kg/ha, rating scale 0-9.
Setting [6] is: rate 0.1250 kg/ha, rating scale 0-9.
Setting [7] is: rate 0.2500 kg/ha, rating scale 0-9.

As for `C[C@H](C(=O)O)N1C(=O)CSC1=Nc1cc(-n2c(=O)cc(C(F)(F)F)n(C)c2=O)c(F)cc1Cl` [Compound 70, 2-{{2-Chloro-5-[3,6-dihydro-3-methyl-2,6-dioxo-4-(trifluoromethyl)-1(2H)-pyrimidinyl]-4-fluoro-phenyl}imino}-α-methyl-4-oxo-3-thiazolidineacetic acid, D-], the ECHCG herbicidal rating is listed as 0.0 with ECHCG (Barnyardgrass) (rate 0.0158 kg/ha), 2.0 with ECHCG (Barnyardgrass) (rate 0.0315 kg/ha) and 9.0 with ECHCG (Barnyardgrass) (rate 0.0630 kg/ha). Besides, the “Preemergence herbicidal rating CHEAL” value is recorded as 2.0 in test [1] (rate 0.0156 kg/ha); 9.0 in test [1] (rate 0.0313 kg/ha); 9.0 in test [1] (rate 0.0625 kg/ha); 9.0 in test [1] (rate 0.1250 kg/ha); 9.0 in test [1] (rate 0.2500 kg/ha). In addition, the “Preemergence herbicidal rating ORYSAT” value with ORYSAT (Rice, Tebonnet) (rate 0.0156 kg/ha) was 0.0; with ORYSAT (Rice, Tebonnet) (rate 0.0313 kg/ha), 0.0; in the test with ORYSAT (Rice, Tebonnet) (rate 0.0625 kg/ha), 0.0; with ORYSAT (Rice, Tebonnet) (rate 0.1250 kg/ha) it was 1.0; in the test with ORYSAT (Rice, Tebonnet) (rate 0.2500 kg/ha), 3.0. The “ECHORC herbicidal effect rating” value in test [2] (0.0313 kg/ha), in test [2] (0.0625 kg/ha), in test [2] (0.1250 kg/ha) and in test [2] (0.2500 kg/ha) was 0.0 throughout. Besides, the “CYPSE herbicidal effect rating” value with CYPSE (Flatsedge) (0.0313 kg/ha) came out at 0.0; in the test on CYPSE (Flatsedge) (0.0625 kg/ha), 0.0; in the test with CYPSE (Flatsedge) (0.1250 kg/ha), 0.0; in the test with CYPSE (Flatsedge) (0.2500 kg/ha) it was 3.0.
As for `Cn1c(C(F)(F)F)cc(=O)n(-c2cc(N=C3SCC(=O)N3CC(=O)OC3CCCC3)c(Cl)cc2F)c1=O` [Compound 120, Cyclopentyl 2-{{2-chloro-5-[3,6-dihydro-3-methyl-2,6-dioxo-4-(trifluoromethyl)-1(2H)-pyrimidinyl]-4-fluorophenyl}imino}-4-oxo-3-thiazolidineacetate], the “Herbicidal rating ECHCG” value stood at 1.0 in the test with ECHCG (Barnyardgrass) (rate 0.0156 kg/ha), 2.0 in the test with ECHCG (Barnyardgrass) (rate 0.0313 kg/ha) and 5.0 in the test on ECHCG (Barnyardgrass) (rate 0.0625 kg/ha). Further, the “Preemergence herbicidal rating CHEAL” value in test [1] (rate 0.0156 kg/ha), in test [1] (rate 0.0313 kg/ha), in test [1] (rate 0.0625 kg/ha), in test [1] (rate 0.1250 kg/ha) and in test [1] (rate 0.2500 kg/ha) was 9.0 each time. Also, the “Preemergence herbicidal rating ORYSAT” value with ORYSAT (Rice, Tebonnet) (rate 0.0156 kg/ha) came out at 0.0; with ORYSAT (Rice, Tebonnet) (rate 0.0313 kg/ha), 0.0; with ORYSAT (Rice, Tebonnet) (rate 0.0625 kg/ha) it was 0.0; in the test with ORYSAT (Rice, Tebonnet) (rate 0.1250 kg/ha), 0.0; in the test with ORYSAT (Rice, Tebonnet) (rate 0.2500 kg/ha), 0.0. In addition, the “herbicidal effect rating, ECHORC” value in test [2] (0.0313 kg/ha) worked out at 7.0; in test [2] (0.0625 kg/ha), 8.0; in test [2] (0.1250 kg/ha), 9.0; in test [2] (0.2500 kg/ha) it was 9.0. Moreover, the “herbicidal effect rating, CYPSE” value with CYPSE (Flatsedge) (0.0313 kg/ha) amounted to 0.0; in the test on CYPSE (Flatsedge) (0.0625 kg/ha), 0.0; in the test on CYPSE (Flatsedge) (0.1250 kg/ha), 0.0; in the test with CYPSE (Flatsedge) (0.2500 kg/ha) it was 3.5.
In the case of `Cn1c(C(F)(F)F)cc(=O)n(-c2cc(N=C3SCC(=O)N3Cc3ccc(F)cc3)c(Cl)cc2F)c1=O` [Compound 151, 3-{4-Chloro-2-fluoro-5-{[3-(p-fluorobenzyl)-4-oxo-2-thiazolidinylidene]amino}phenyl}-1-methyl-6-(trifluoromethyl)-2,4(1H,3H)-pyrimidinedione], the entries for the “Herbicidal rating ECHCG” value with ECHCG (Barnyardgrass) (rate 0.0156 kg/ha), in the test with ECHCG (Barnyardgrass) (rate 0.0313 kg/ha) and with ECHCG (Barnyardgrass) (rate 0.0625 kg/ha) were 3.0, 3.0 and 4.0, respectively. Besides, the “Preemergence herbicidal rating CHEAL” value in test [1] (setting [3]), in test [1] (setting [4]), in test [1] (setting [5]), in test [1] (setting [6]) and in test [1] (setting [7]) was 9.0 throughout. Also, the “Preemergence herbicidal rating ORYSAT” value was 2.0 with ORYSAT (Rice, Tebonnet) (setting [3]); 5.0 in the test on ORYSAT (Rice, Tebonnet) (setting [4]); 5.0 in the test with ORYSAT (Rice, Tebonnet) (setting [5]); 9.0 in the test on ORYSAT (Rice, Tebonnet) (setting [6]); 9.0 with ORYSAT (Rice, Tebonnet) (setting [7]). The “herbicidal effect rating, ECHORC” value was determined as 3.0 in test [2] (0.0313 kg/ha), 5.0 in test [2] (0.0625 kg/ha), 9.0 in test [2] (0.1250 kg/ha) and 9.0 in test [2] (0.2500 kg/ha). For the same molecule, the “herbicidal effect rating, CYPSE” value in the test on CYPSE (Flatsedge) (0.0625 kg/ha) and with CYPSE (Flatsedge) (0.2500 kg/ha) was 7.0 each time.
Regarding `CCOC(=O)CN1C(=O)C(Br)SC1=Nc1cc(-n2c(=O)cc(C(F)(F)F)n(C)c2=O)c(F)cc1Cl` (stereo not drawn) [Compound 153, Ethyl 5-bromo-2-[{2-chloro-5-[3,6-dihydro-3-methyl-2,6-dioxo-4-(trifluoromethyl)-1(2H)-pyrimidinyl]-4-fluorophenyl}imino}-4-oxo-3-thiazolidineacetate], the “Herbicidal rating ECHCG” value is given as 0.0 in the test on ECHCG (Barnyardgrass) (rate 0.0156 kg/ha), 0.0 in the test with ECHCG (Barnyardgrass) (rate 0.0313 kg/ha) and 1.0 in the test on ECHCG (Barnyardgrass) (rate 0.0625 kg/ha). Also, the “Preemergence herbicidal rating CHEAL” value in test [1] (setting [6]) is 1.0; in test [1] (setting [7]), 7.0. Besides, the “Preemergence herbicidal rating ORYSAT” value in the test with ORYSAT (Rice, Tebonnet) (setting [6]) came to 0.0; in the test with ORYSAT (Rice, Tebonnet) (setting [7]) it was 0.0. Moreover, the “herbicidal effect rating, ECHORC” value in test [2] (0.0625 kg/ha), in test [2] (0.1250 kg/ha) and in test [2] (0.2500 kg/ha) was 0.0 throughout. The “herbicidal effect rating, CYPSE” value in the test on CYPSE (Flatsedge) (0.0625 kg/ha), in the test with CYPSE (Flatsedge) (0.1250 kg/ha) and in the test on CYPSE (Flatsedge) (0.2500 kg/ha) was 0.0 in each case.
For the molecule `CCN1C(=O)CSC1=Nc1cc(-n2c(=O)cc(C(F)(F)F)n(C)c2=O)c(F)cc1Cl` [Compound 159, 3-{4-Chloro-5-[(3-ethyl-4-oxo-2-thiazolidinyl-idene)amino]-2-fluorophenyl}-1-methyl-6-(trifluoromethyl)-2,4(1H,3H)-pyrimidinedione], the entries for the “Herbicidal rating ECHCG” value in the test on ECHCG (Barnyardgrass) (rate 0.0156 kg/ha), in the test with ECHCG (Barnyardgrass) (rate 0.0313 kg/ha) and in the test with ECHCG (Barnyardgrass) (rate 0.0625 kg/ha) were 2.0, 3.0 and 3.0, respectively. Moreover, the “Preemergence herbicidal rating CHEAL” value in test [1] (0.0156 kg/ha) came out at 7.0; in test [1] (0.0313 kg/ha), 9.0; in test [1] (0.0625 kg/ha) it was 8.0; in test [1] (0.1250 kg/ha), 9.0; in test [1] (0.2500 kg/ha), 9.0. Moreover, the “Preemergence herbicidal rating ORYSAT” value in the test with ORYSAT (Rice, Tebonnet) (0.0156 kg/ha) was determined as 0.0; with ORYSAT (Rice, Tebonnet) (0.0313 kg/ha), 0.0; in the test with ORYSAT (Rice, Tebonnet) (0.0625 kg/ha), 0.0; in the test with ORYSAT (Rice, Tebonnet) (0.1250 kg/ha), 1.0; in the test with ORYSAT (Rice, Tebonnet) (0.2500 kg/ha), 2.0. For the same molecule, the “herbicidal effect rating, ECHORC” value is reported as 2.0 in test [2] (0.0313 kg/ha), 4.0 in test [2] (0.0625 kg/ha), 5.0 in test [2] (0.1250 kg/ha) and 7.0 in test [2] (0.2500 kg/ha). Also, the “herbicidal effect rating, CYPSE” value with CYPSE (Flatsedge) (0.0625 kg/ha) and in the test with CYPSE (Flatsedge) (0.1250 kg/ha) was 0.0 in each case.
As for `CCOC(=O)CN1C(=O)C(Cc2ccccc2OC)SC1=Nc1cc(-n2c(=O)cc(C(F)(F)F)n(C)c2=O)c(F)cc1Cl` (stereo not drawn) [Compound 37, Ethyl 2-{{2-chloro-5-[3,6-dihydro-3-methyl-2,6-dioxo-4-(trifluoromethyl)-1(2H)-pyrimidinyl]-4-fluorophenyl}imino}-5-(o-methoxybenzyl)-4-oxo-3-thiazolidineacetate], the “Postemergence herbicidal rating ECHCG” value in the test with ECHCG (Barnyardgrass) (Rate 0.0158 kg/ha), in the test with ECHCG (Barnyardgrass) (Rate 0.0315 kg/ha) and with ECHCG (Barnyardgrass) (Rate 0.0630 kg/ha) was 0.0 in each case. Besides, the “Preemergence herbicidal rating CHEAL” value in test [1] (rate 0.1250 kg/ha) and in test [1] (rate 0.2500 kg/ha) was 9.0 in each case. Further, the “Preemergence herbicidal rating ORYSAT” value with ORYSAT (Rice, Tebonnet) (rate 0.1250 kg/ha) is recorded as 0.0; with ORYSAT (Rice, Tebonnet) (rate 0.2500 kg/ha), 0.0. For the same molecule, the “Herbicidal rating ECHORC” value in test [2] (0.0313 kg/ha) is reported as 4.0; in test [2] (0.0625 kg/ha) it was 6.0; in test [2] (0.1250 kg/ha) it was 7.0; in test [2] (0.2500 kg/ha) it was 7.0. Also, the “Herbicidal rating CYPSE” value in the test on CYPSE (Flatsedge) (0.0313 kg/ha), in the test with CYPSE (Flatsedge) (0.0625 kg/ha), with CYPSE (Flatsedge) (0.1250 kg/ha) and with CYPSE (Flatsedge) (0.2500 kg/ha) was 0.0 each time.
